In ChEMBL document CHEMBL5034019, “Discovery of the Next-Generation Pan-TRK Kinase Inhibitors for the Treatment of Cancer” (J Med Chem, 2021):
Converted amounts (≈) assume the structure as drawn. One block for each molecule: values may come before it. The source made the active and inactive calls. No cut-off for these calls is given here.

Experiments:
[1] = system: BaF3; assay: Antitumor activity against mouse BaF3 cells transfected with LMNA-NTRK1-G595R mutant xenografted in mouse assessed as tumor growth inhibition at 100 mg/kg, po administered once daily for 21 days and measured twice weekly; conditions: time 21.0 day
[2] = Toxicity in […] xenografted with mouse BaF3 cells transfected with ETV6-NTRK3 assessed as death at 100 mg/kg, po administered once daily for 21 days and measured twice weekly; type: organism-based; conditions: in vivo, 504 h, time 21 day
[3] = Toxicity in mouse xenografted with mouse BaF3 cells transfected with ETV6-NTRK3-G623R mutant assessed as unkempt appearance at 100 mg/kg, po administered once daily for 21 days and measured twice weekly; conditions: in vivo, 504 h
[4] = cells; conditions: Homo sapiens, MO-91
Description: Antiproliferative activity against TrK fused human MO-91 cells

[5] = target: Voltage-gated inwardly rectifying potassium channel KCNH2 (Homo sapiens, UniProt Q12809); assay: Inhibition of human ERG
[6] = system: Hepatocyte growth factor receptor (Homo sapiens), P08581 [Y1248C]; assay: Inhibition of recombinant human Met Y1248C mutant (974 to end residues) assessed as residual activity at 0.5 uM using KKKGQEEEYVFIE as substrate incubated for 40 mins in presence of [gamma-33P]-ATP by scintillation counting method relative to control
[7] = target: Mast/stem cell growth factor receptor Kit (Homo sapiens) (UniProt P10721); assay: Inhibition of recombinant human c-Kit (544 to end residues) assessed as residual activity at 0.5 uM using poly(Glu, Tyr) 4:1 as substrate measured after 40 mins in presence of [gamma33P]ATP by scintillation counting method
[8] = Toxicity in […] xenografted with mouse BaF3 cells transfected with ETV6-NTRK3 assessed as weight loss at 20 mg/kg, po administered once daily for 21 days and measured twice weekly; type: organism-based; conditions: in vivo, 504 h, time 21 day
[9] = system: Proto-oncogene tyrosine-protein kinase receptor Ret (Homo sapiens), P07949 [V804L]; assay: Inhibition of recombinant human Ret V804L mutant (658 to end residues) assessed as residual activity at 0.5 uM using KKKSPGEYVNIEFG as substrate incubated for 40 mins in presence of [gamma33P]ATP by scintillation counting based radiometry assay relative to control
[10] = target: BDNF/NT-3 growth factors receptor (Homo sapiens) (UniProt Q16620); assay: Inhibition of human TrkB (455 to end residues) assessed as residual activity at 0.5 uM using poly(Glu, Tyr) 4:1 as substrate measured after 40 mins in presence of [gamma33P]ATP by scintillation counting method relative to control
[11] = C0 in male Sprague-Dawley rat at 2 mg/kg, iv measured up to 24 hrs by LC/MS/MS analysis; type: ADME, organism-based; conditions: in vivo
[12] = system: BaF3; assay: Antitumor activity against mouse BaF3 cells transfected with LMNA-NTRK1 xenografted in mouse assessed as tumor growth inhibition at 5 to 20 mg/kg, po administered once daily for 21 days and measured twice weekly; conditions: dose 5-20 mg/kg, time 21.0 day
[13] = Volume of distribution in male Sprague-Dawley rat at 2 mg/kg, iv measured up to 24 hrs by LC-MS/MS analysis; type: ADME, organism-based; conditions: in vivo
[14] = system: Mast/stem cell growth factor receptor Kit (Homo sapiens), P10721 [V560G]; assay: Inhibition of recombinant human C-Kit V560G mutant (544 to end residues) assessed as residual activity at 0.5 uM poly(Glu, Tyr) 4:1 as substrate incubated 40 mins in presence of [gamma-33ATP] by scintillation counting based radiometry assay relative to control
[15] = Oral bioavailability in male Sprague-Dawley rat at 10 mg/kg measured up to 24 hrs by LC/MS/MS analysis; type: ADME, organism-based; conditions: in vivo
[16] = target: Fibroblast growth factor receptor 4 (Homo sapiens) (UniProt P22455); assay: Inhibition of recombinant human FGFR4 (442 to 755 residues) assessed as residual activity at 0.5 uM using poly(Glu, Tyr) 4:1 as substrate at 40 mins in presence of [gamma-33ATP] by scintillation counting based radiometry assay relative to control
[17] = Cmax in male Sprague-Dawley rat at 10 mg/kg, po measured up to 24 hrs by LC-MS/MS analysis; type: ADME, organism-based; design: route oral, dose 10 mg/kg, time <=24; conditions: in vivo
[18] = target: Tyrosine-protein kinase JAK3 (Homo sapiens) (UniProt P52333); assay: Inhibition of human JAK3 (781 to end residues) assessed as residual activity at 0.5 uM using GGEEEEYFELVKKKK as substrate after 40 mins by [gamma-33ATP] radiometric assay relative to control
[19] = organism: Homo sapiens; assay: Inhibition of recombinant […] human B-Raf V599E mutant (416 to end residues) assessed as residual activity at 0.5 uM using myelin basic protein as substrate incubated for 40 mins in presence of [gamma-33ATP] by scintillation counting based radiometry assay relative to control
[20] = target: Platelet-derived growth factor receptor alpha (Homo sapiens) (UniProt P16234); assay: Inhibition of human PDGFRalpha (550 to end residues) assessed as residual activity at 0.5 uM poly(Glu, Tyr) 4:1 as substrate measured after 40 mins in presence of [gamma33P]ATP by scintillation counting method relative to control
[21] = Half life in male Sprague-Dawley rat at 2 mg/kg, iv measured up to 24 hrs by LC-MS/MS analysis; type: ADME, organism-based; conditions: in vivo
[22] = Kinetic solubility of the compound; type: physicochemical; conditions: read-out: Kinetic_solubility
[23] = system: Epidermal growth factor receptor (Homo sapiens), P00533 [L861Q]; assay: Inhibition of recombinant human EGFR L861Q mutant (696 to end residues) assessed as residual activity at 0.5 uM using poly(Glu, Tyr) 4:1 as substrate at 40 mins in presence of [gamma-33ATP] by scintillation counting based radiometry assay relative to control
[24] = system: Hepatocyte growth factor receptor (Homo sapiens), P08581 [M1268T]; assay: Inhibition of recombinant human Met M1268T mutant (974 to end residues) assessed as residual activity at 0.5 uM using KKKGQEEEYVFIE as substrate incubated for 40 mins in presence of [gamma-33P]-ATP by scintillation counting method relative to control
[25] = target: Proto-oncogene tyrosine-protein kinase ROS (Homo sapiens, UniProt P08922)
Description: Inhibition of ROS1 (unknown origin) incubated for 120 mins in presence of 33P-ATP

[26] = system: Tyrosine-protein kinase BTK (Homo sapiens), Q06187 [R28H]; assay: Inhibition of recombinant full length human BTK R28H mutant assessed as residual activity at 0.5 uM using LSNLYHQGKFLQT as substrate incubated for 40 mins in presence of [gamma-33P]-ATP by scintillation counting method relative to control
[27] = system: BaF3; assay: Antitumor activity against mouse BaF3 cells transfected with LMNA-NTRK1-G595R mutant xenografted in mouse assessed as tumor growth inhibition at 5 to 20 mg/kg, po administered once daily for 21 days and measured twice weekly; conditions: dose 5-20 mg/kg, time 21.0 day

Voltage-gated inwardly rectifying potassium channel KCNH2, sequence (Q12809 whole entry): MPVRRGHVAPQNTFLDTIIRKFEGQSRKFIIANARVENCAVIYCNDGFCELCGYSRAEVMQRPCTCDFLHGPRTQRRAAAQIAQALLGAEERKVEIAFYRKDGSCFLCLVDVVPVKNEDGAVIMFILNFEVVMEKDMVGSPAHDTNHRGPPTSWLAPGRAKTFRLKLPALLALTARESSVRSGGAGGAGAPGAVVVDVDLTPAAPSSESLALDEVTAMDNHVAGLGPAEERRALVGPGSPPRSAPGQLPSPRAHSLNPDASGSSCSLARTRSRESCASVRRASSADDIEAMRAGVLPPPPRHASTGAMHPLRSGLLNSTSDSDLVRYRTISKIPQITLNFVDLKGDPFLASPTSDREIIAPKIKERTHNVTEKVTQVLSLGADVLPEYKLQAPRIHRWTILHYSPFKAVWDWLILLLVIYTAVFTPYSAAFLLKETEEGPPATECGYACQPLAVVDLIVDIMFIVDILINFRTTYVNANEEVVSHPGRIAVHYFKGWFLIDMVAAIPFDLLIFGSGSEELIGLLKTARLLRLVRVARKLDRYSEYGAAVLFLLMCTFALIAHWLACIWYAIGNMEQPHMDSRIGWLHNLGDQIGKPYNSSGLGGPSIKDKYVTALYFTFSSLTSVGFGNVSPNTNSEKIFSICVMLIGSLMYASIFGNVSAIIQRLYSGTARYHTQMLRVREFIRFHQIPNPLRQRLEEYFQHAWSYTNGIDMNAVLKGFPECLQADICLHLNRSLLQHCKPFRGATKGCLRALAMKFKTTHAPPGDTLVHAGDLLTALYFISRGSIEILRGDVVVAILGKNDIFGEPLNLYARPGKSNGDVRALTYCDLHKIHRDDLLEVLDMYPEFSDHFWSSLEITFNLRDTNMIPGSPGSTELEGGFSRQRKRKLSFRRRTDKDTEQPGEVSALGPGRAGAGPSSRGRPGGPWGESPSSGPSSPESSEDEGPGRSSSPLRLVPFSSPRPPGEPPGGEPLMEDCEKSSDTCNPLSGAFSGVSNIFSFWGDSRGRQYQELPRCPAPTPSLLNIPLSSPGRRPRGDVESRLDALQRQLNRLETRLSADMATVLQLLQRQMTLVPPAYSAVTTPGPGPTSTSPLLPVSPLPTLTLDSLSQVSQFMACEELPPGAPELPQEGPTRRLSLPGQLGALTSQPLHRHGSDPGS
BDNF/NT-3 growth factors receptor (Homo sapiens), sequence (Q16620 32-822 limits assumed): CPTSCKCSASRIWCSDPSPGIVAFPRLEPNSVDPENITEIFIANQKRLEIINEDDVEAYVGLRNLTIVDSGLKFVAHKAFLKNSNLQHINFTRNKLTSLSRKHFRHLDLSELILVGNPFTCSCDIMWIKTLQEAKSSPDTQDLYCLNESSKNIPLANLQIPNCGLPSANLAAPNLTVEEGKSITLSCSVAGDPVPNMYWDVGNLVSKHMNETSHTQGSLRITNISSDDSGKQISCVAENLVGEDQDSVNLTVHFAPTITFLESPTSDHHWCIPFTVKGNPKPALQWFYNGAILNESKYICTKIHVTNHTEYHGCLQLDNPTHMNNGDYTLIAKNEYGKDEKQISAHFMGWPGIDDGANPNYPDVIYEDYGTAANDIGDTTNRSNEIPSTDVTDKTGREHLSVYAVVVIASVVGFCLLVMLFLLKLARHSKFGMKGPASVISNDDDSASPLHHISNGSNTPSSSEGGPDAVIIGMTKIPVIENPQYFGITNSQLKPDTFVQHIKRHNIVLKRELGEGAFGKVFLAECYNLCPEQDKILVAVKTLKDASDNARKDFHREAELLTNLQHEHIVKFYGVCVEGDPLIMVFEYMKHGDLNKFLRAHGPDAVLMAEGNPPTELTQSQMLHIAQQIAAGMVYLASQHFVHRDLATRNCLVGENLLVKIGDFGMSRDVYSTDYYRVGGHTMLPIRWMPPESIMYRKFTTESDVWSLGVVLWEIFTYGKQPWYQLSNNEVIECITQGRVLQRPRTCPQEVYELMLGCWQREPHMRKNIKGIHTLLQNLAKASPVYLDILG
Tyrosine-protein kinase BTK (Homo sapiens), Q06187 [R28H], sequence (Q06187 whole entry R28H): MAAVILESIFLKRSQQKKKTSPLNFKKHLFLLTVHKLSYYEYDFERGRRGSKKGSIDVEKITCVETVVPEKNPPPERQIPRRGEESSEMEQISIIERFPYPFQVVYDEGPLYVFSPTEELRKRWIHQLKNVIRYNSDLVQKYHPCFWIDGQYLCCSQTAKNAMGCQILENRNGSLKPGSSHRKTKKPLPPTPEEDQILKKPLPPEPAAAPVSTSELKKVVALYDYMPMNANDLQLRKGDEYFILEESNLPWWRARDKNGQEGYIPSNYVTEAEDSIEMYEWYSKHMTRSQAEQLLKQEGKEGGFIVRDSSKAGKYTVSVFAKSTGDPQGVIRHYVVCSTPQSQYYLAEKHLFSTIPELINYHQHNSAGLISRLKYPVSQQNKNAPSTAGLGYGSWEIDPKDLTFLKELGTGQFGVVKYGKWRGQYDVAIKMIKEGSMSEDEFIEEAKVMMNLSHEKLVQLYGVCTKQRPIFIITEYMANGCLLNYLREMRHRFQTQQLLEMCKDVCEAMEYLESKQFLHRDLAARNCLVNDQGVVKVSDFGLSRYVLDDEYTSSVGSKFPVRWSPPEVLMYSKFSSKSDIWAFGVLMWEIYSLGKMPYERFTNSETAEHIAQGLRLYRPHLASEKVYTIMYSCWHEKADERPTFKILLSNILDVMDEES
Mast/stem cell growth factor receptor Kit (Homo sapiens), P10721 [V560G], sequence (P10721 whole entry V560G): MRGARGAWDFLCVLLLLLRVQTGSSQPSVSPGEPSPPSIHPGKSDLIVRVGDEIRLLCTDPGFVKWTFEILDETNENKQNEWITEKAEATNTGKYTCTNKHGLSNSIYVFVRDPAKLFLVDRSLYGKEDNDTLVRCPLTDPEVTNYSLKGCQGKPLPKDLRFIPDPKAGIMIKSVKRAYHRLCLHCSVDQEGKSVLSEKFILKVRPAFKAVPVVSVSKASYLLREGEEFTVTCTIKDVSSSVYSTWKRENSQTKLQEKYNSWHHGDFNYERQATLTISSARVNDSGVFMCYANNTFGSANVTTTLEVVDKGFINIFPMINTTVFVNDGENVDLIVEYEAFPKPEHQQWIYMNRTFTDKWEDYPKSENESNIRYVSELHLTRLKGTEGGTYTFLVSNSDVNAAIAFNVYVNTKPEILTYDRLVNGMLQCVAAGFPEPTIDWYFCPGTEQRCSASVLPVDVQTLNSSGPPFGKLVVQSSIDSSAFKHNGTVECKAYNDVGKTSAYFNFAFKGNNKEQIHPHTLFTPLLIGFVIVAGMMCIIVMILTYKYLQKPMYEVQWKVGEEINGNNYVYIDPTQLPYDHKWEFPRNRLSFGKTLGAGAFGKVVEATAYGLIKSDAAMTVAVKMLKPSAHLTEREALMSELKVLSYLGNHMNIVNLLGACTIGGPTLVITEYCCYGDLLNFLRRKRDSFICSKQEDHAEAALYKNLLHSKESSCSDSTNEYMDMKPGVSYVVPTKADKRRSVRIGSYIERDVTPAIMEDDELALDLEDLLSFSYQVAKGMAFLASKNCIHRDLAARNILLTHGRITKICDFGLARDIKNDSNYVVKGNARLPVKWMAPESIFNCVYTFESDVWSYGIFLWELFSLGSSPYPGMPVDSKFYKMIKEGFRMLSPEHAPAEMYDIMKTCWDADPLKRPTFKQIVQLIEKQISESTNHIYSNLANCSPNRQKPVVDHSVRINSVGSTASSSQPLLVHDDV
Proto-oncogene tyrosine-protein kinase receptor Ret (Homo sapiens), P07949 [V804L], sequence (P07949 whole entry V804L): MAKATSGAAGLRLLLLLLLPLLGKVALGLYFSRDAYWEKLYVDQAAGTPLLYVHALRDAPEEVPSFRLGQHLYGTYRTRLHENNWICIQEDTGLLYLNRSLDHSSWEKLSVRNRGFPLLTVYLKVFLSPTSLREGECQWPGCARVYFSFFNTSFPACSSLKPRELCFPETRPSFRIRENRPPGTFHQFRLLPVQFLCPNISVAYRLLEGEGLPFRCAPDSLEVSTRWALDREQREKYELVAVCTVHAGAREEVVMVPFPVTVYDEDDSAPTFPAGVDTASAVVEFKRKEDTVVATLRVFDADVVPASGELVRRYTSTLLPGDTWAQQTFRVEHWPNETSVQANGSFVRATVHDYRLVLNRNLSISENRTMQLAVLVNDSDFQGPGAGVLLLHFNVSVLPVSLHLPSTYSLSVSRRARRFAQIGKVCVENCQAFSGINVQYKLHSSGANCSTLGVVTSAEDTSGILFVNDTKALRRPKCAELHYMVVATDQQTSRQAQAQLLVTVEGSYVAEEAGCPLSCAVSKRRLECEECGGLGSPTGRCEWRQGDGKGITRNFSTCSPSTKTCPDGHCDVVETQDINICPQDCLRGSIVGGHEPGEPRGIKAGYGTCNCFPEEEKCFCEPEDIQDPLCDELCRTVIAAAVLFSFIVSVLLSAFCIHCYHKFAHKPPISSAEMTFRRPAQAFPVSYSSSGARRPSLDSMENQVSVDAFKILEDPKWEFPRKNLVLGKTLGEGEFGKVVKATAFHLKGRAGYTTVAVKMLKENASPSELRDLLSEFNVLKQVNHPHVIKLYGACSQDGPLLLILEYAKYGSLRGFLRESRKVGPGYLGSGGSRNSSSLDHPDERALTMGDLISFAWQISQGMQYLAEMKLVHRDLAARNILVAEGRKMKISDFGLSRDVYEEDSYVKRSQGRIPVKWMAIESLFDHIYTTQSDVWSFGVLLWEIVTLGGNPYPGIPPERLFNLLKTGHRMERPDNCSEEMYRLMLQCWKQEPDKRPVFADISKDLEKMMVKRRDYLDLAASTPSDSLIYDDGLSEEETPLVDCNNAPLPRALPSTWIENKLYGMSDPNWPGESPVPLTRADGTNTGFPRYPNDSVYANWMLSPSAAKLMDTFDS
Mast/stem cell growth factor receptor Kit (Homo sapiens), sequence (P10721 whole entry): as the sequence (P10721 whole entry V560G) above, with G560V counted along it

Compound: C[C@@H]1CCc2ncc(F)cc2[C@H]2CCCN2c2ccn3ncc(c3n2)C(=O)N1 [SELITRECTINIB]
Activity [1]: Active | Activity [2]: Toxic | Activity [3]: Toxic | IC50 [4]: ≤ 5 nM

Activity [6]: 85% | Activity [7]: 100% | Activity [9]: 59% | Activity [10]: -1% | C0 at 24 h [11]: 4.12 µM | Vd [13]: 1.39 L/kg | Activity [14]: 109% | bioavailability [15]: 56% | Activity [16]: 114% | Cmax [17]: 6.38 µM | Activity [18]: 94% | Activity [19]: 87% | Activity [20]: 106% | half-life [21]: 52.3 min | solubility kinetic [22]: 193 µM (≈ 79.2 µg/mL) | Activity [23]: 95% | Activity [24]: 86% | IC50 [25]: 1 nM | Activity [26]: 74%
Compound: O=C1NC2(CC2)COc2ncc(F)cc2[C@H]2COCCN2c2ccn3ncc1c3n2
IC50 [5]: 13000 nM | Activity [8]: Toxic | Activity [12]: Active | Activity [27]: Active
